Key:
[1] = test system: metastatic lung cancer cell line 95-D; experiment: SRB assay in 95-D; format: cell-based, human; conditions: 72 hours
Method: Sulfor hod am ine B p rotei n st ai ning (SRB) assay
Cell pr oliferat ion was eva lua ted by sul for hod amine B pr ot ein st aini ng (SRB) assa y10-12.
Briefly, cel ls were se ede d int o 96-well pl ates, cul tur ed overni ght , and trea ted with correspond ing com poun ds for 72 h. Cells were the n fixe d with 10% trichl or oa cetic aci d and st ained with sul for hoda mine B (Sigm a). Sul for hoda mine B in the cells was di sso lved in 10 mmol/L Tris-HCl and was measured at 515 nm usi ng a multiw ell spect ropho tometer (VERSA max, Mol ecul ar Devi ces, Sunnyva le, CA). The inhi bi tion rat e on cell pr olif eratio n was cal culated for each well as (A515contr ol cells-A 515tr eated cells)/A515contr ol cells×100 % (A515:
OD va lue at 515 nm ). The averag e IC50 va lue s were de termine d by Logit method from at leas t t hr eei nde pe nde nt test s.

Huh7-C cells = experiment: CCK-8 assay in stem-like human hepatoma cell line Huh7-C; format: cell-based; conditions: 60 h, read-out: CCK-8 assay in Huh7-C: IC50
Method: Cellc ount ing k it-8 (CCK-8) assa y
Cell vi ability was de termine d by ou r previ ous method9 usi ng the Cell Counting Kit-8 (CCK -8, […]
10 μl CCK-8 sol ution was adde d to the cul ture medium and inc ub ated at 37 °C for 1 h. Th e absor banc e at 450 nm (A450) was de tected by a pl ate reade r. Each e xperi ment w as carr ied out i n t riplic ate i n thr ee r eplic ate w ells.

NAD level of HepG2 cells = experiment: Cellular NAD level, spectrophotometric enzymatic cycling assay; format: cell-based, human
Description: F0 was the average d fluo rescen ce of si x backgr ound control s, repres ent ing zero activ ity from a si mul ated enz ym e reaction wit h on ly NAMP T but no NAM and com pound; F100 % was the average d fluorescen ce of si x ref erence cont rols, repr ese nt ing 100% activ ity from int act enz ym e reaction w ithou t com pound p ert ur bation.
Compounds with Activ ity% less tha n 40% were consi dered as inhi bi tor s and subj ect ed to a secondary screen inhi bition valida tion, in whi ch anot her backgr oun d cont rol (FC0), a si mul ated enz ym e reaction with NAMP Tand com pound but no NAM, was int roduced to elimina te the di rec t and /or ind irect inf lue nc e fro m compou nd. At thi s st age , the Activ ity% was cal culated accor ding t o e qua tion ( 2) :
In the screeni ng, the si gna l-to- noi se (S/N) rat io was cal cul ated usi ng the equa tion: (Mean signal -Mean backgr oun d) / SD backgr oun d4. Coe fficient s of vari atio n (CV) were the ratio of SD to mean. The Z ’f act or w as de term ine d by e qua tion (3) 5:
Z' −= (3)1−3(S Dhi ghsigna l+SDlowsigna l)
Mean hi gh signa l Meanlow signa l
Determ inat ion of IC50 for NAMPT inhi bitor s […]
vari ous con cent ration s were adde d int o 96-well pl ate. The pl ate was inc uba ted at 37 °C for 5 min after addition of 16.5 μl react ion buf fer cont aini ng N AMP T. The enz ym e reactions were ini tiated by 4.5 μl NAM (1.1 1 μM) follow ing NMN measurem ent as de scri bed above . […]
Cellul ar level of NAD was measured by spe ctrophot om etric enz ym atic cyc ling assa y, as de scri bed pr evi ousl y6-8. […]
Cell vi ability was de termine d by ou r previ ous method9 usi ng the Cell Counting Kit-8 (CCK -8, Dojindo, Ja pa n). […] Th e absor banc e at 450 nm (A450) was de tected by a pl ate reade r. […]
Briefly, cel ls were se ede d int o 96-well pl ates, cul tur ed overni ght , and trea ted with correspond ing com poun ds for 72 h. […] Sul for hoda mine B in the cells was di sso lved in 10 mmol/L Tris-HCl and was measured at 515 nm usi ng a multiw ell spect ropho tometer […]

O=S(=O)(c1ccc(NC(=S)NCc2cccnc2)cc1)N1CCCCC1 [MS0]
growth inhibition (SRB, in words) [1]: potent growth inhibition
IC50 (Huh7-C cells): 722 ± 36.3 nM
decrease of cellular NAD level (NAD level of HepG2 cells; HepG2, 1 μM, 24 hours): ~ 70%
IC50 (NAD level of HepG2 cells; Homo sapiens, HepG2, 24 hours treatment, read-out: IC50 for reducing NAD level): 93.7 nM

Source: PMC4603696, “Discovery and characterization of novel small-molecule inhibitors targeting nicotinamide phosphoribosyltransferase” (Scientific Reports, 2015)
